Data as given in patent publication US20240076347A1, “METHODS FOR PREVENTING FUNGAL INFECTIONS” (Cidara Therapeutics, Inc., priority 2016, published 2024).
Numbered stars: 1 amine (or outer) side, 2 acyl side, 3 side chain; on linkers, the order of the positions; unused ones are H or OH. Bridge positions count the residues as written; N and C are the ends. Square brackets hold non-standard residues; d marks the D form. Peptide text beside a SMILES is read from it. * marks the point of attachment. ξ: configuration not given here. Orn(4R-OH,5R-OCH2CH2NMe3+) = C[N+](C)(C)CCO[C@@H](N[*:3])[C@H](O)C[C@H](N[*:1])C(=O)[*:2]; pTerphenylCO(4''-OnC5H11) = CCCCCOc1ccc(-c2ccc(-c3ccc(C(=O)*)cc3)cc2)cc1; hTyr(3S-OH,4S-OH) = N[C@H](C(=O)O)[C@H](O)[C@@H](O)c1ccc(O)cc1; X1 = C[C@H]1CN([*:1])C(C(=O)[*:2])C1O; Hyp = O=C(O)[C@@H]1C[C@@H](O)CN1; ξT = CC(O)C(N)C(=O)O

Assays:
[1] = test system: Candida albicans ATCC SC5314; assay: Prophylaxis, neutropenic ICR mouse candidiasis model, kidney CFU; type: in vivo
Experimental: Candidiasis model: ICR mice (5/group) were rendered neutropenic by cyclophosphamide on Day −4 (150 mg/kg) and Day −1 (100 mg/kg), then challenged (Day 0) with Candida albicans ATCC SC5314 via IV (100 μL, […] CFU/mouse). Prior to challenge, mice were given one SC dose (5, 10, or 20 mg/kg) of CD101 on Day −5, Day −3, or Day −1. At 24 hours post-challenge, kidneys were removed for CFU enumeration.

[2] = test system: Aspergillus fumigatus ATCC; assay: Prophylaxis, neutropenic ICR mouse aspergillosis model, survival; type: in vivo; details: 14 days
Experimental: Aspergillosis model: ICR mice (6/group) were rendered neutropenic by cyclophosphamide on Day −3 (6 mg/mouse), Day +1, and Day +4 (2 mg/mouse). Challenge with Aspergillus fumigatus ATCC via IV (100 μL, […] CFU/mouse) occurred on Day 0. Prior to challenge, mice were given one SC dose (5, 10 or 20 mg/kg) of CD101 on Day −5, Day −3, or Day −1. Survival was monitored for 14 days.

C. glabrata = assay: Neutropenic murine disseminated candidiasis model, PK/PD target determination; type: in vivo, Candida glabrata
Experimental: Infection model. A neutropenic, murine, disseminated candidiasis model was used for the treatment studies. The mice were rendered neutropenic (polymorphonuclear cell count, <100/mm3) by injecting 150 mg/kg of cyclophosphamide (Mead Johnson Pharmaceuticals, Evansville, IN) subcutaneously 4 days before infection, 100 mg/kg of cyclophosphamide 1 day before infection, and additional cyclophosphamide doses (100 mg/kg) on Day 2 and Day 4 after infection to ensure neutropenia throughout the 168 h (7 d) study period. Three mice were included in each treatment and control group.
The organisms were subcultured on SDA plates 24 h prior to infection. The inoculum was prepared by placing 3 to 5 colonies into 5 ml of sterile pyrogen-free 0.15 M NaCl warmed to 35° C. The final inoculum was adjusted to a 0.6 transmittance at 530 nm. The fungal count of the inoculum determined by viable counts on SDA was 6.1±0.2 log10 CFU/ml.
Disseminated infection with the Candida strains was achieved by injection of 0.1 ml of the inoculum via the lateral tail vein 2 h prior to the start of antifungal therapy. At the end of the study period, the animals were sacrificed by CO2 asphyxiation. The kidneys of each mouse were aseptically removed and placed in 0.15 M NaCl at 4° C. The kidneys were homogenized and serially diluted 1:10, and the aliquots were plated onto SDA for viable fungal colony counts after incubation for 24 h at 35° C. The lower limit of detection was 100 CFU/ml. The results are expressed as the mean CFU/kidney for three mice.
Treatment efficacy and pharmacodynamic target determination of CD101. Neutropenic mice were infected with one of 10 Candida strains as described above. […] Five dose levels that varied from 0.25 to 64 mg/kg were administered once in a 0.2-ml volume by IP route for the 168 h study period. Due to enhanced effect against single isolate, additional studies at 0.0156 and 0.0625 mg/kg was examined for C. glabrata 5592. Groups of three mice were used for each dosing regimen and control group. At the end of the treatment period (168 h), the mice were euthanized, and their kidneys were immediately processed for CFU determination as described above.
Data analysis. A sigmoid dose-effect (Hill) model was used to measure the in vivo potency of CD101. The efficacy endpoints included the dose level required to produce a 24 h net static effect (no change in organism burden compared to that at the start of therapy) and the dose required to achieve a 1-log10 reduction in colony counts (relative to the burden at the start of therapy), when achieved. The maximum response (Emax) was measured as the difference in the number of CFU/kidney relative to that of the untreated control animals. The doses associated with the stasis and 1-log10 endpoint for each strain was calculated using the equation: log10 D=[log10 (E/(Emax−E))/N]+log10 ED50, where D is the drug dose, E is the control growth in untreated animals, Emax is the maximal effect, Nis the slope of the dose-response relationship, and ED50 is the dose needed to achieve 50% of the maximal effect. The associated AUC/MIC targets were then calculated for each strain. […] The calculations were performed using both total and free drug concentrations. The coefficient of determination (R^2) was used to estimate the variance that might be due to regression with the PK/PD index. Kruskal-Wallis one-way analysis of variance (ANOVA) was used to determine if the differences in PK/PD targets were significant between the species.

[3] = test system: Candida albicans clinical isolates; details: SENTRY surveillance (Pfaller, et al 2017); cited from earlier work
[4] = Median of 3 C. glabrata strains

CCCCCOc1ccc(-c2ccc(-c3ccc(C(=O)N[C@H]4C[C@@H](O)[C@@H](OCC[N+](C)(C)C)NC(=O)C5C(O)[C@@H](C)CN5C(=O)[C@H]([C@@H](C)O)NC(=O)[C@H]([C@H](O)[C@@H](O)c5ccc(O)cc5)NC(=O)[C@@H]5C[C@@H](O)CN5C(=O)C(C(C)O)NC4=O)cc3)cc2)cc1 (stereo partly drawn) [CD101] ({pTerphenylCO(4''-OnC5H11)}-[Orn(4R-OH,5R-OCH2CH2NMe3+)][ξT][Hyp][hTyr(3S-OH,4S-OH)]T[X1]; lactam 1-C)
kidney CFU ([1]; 10 mg/kg SC single dose at Day −3 and Day −1, 24 h post-challenge, all animals): Complete clearance
kidney CFU ([1]; 20 mg/kg SC on Day −3, all but one animal): Complete clearance
kidney CFU ([1]; 20 mg/kg SC on Day −5, −3 or −1): reduced CFU burden regardless of prophylactic treatment day
kidney CFU ([1]; 5 or 10 mg/kg SC at Day −3 and Day −1): significant decrease in CFU
survival ([2]; 5 mg/kg SC): increased survival when prophylaxis was given closer to challenge
increases in survival compared with vehicle ([2]; 5, 10 and 20 mg/kg SC on Day −5, −3 or −1): > 50%
survival ([2]; 10 and 20 mg/kg SC, any prophylaxis day): All animals in the 10 and 20 mg/kg groups survived
1 log kill 24 h Ave Free drug AUC/MIC (C. glabrata; 5592): 0.36
1 log kill free drug AUC0-168 h/MIC (C. glabrata; 5592): 2.54
1 log kill total drug AUC0-168 h/MIC (C. glabrata; 5592): 317.50
Stasis 24 h Ave free drug AUC/MIC (C. glabrata; 5592): 0.05
Stasis free drug AUC0-168 h/MIC (C. glabrata; 5592): 0.35
Stasis total drug AUC0-168 h/MIC (C. glabrata; 5592): 43.16
1 log kill dose (C. glabrata; 5592, single IP dose, 168 h): 0.43 mg/kg
Static dose (C. glabrata; 5592, single IP dose, 168 h): 0.06 mg/kg
1 log kill 24 h Ave Free drug AUC/MIC (C. glabrata; 10956): 1.20
1 log kill free drug AUC0-168 h/MIC (C. glabrata; 10956): 8.42
1 log kill total drug AUC0-168 h/MIC (C. glabrata; 10956): 1052.22
Stasis 24 h Ave free drug AUC/MIC (C. glabrata; 10956): 0.48
Stasis free drug AUC0-168 h/MIC (C. glabrata; 10956): 3.35
Stasis total drug AUC0-168 h/MIC (C. glabrata; 10956): 418.68
1 log kill dose (C. glabrata; 10956, single IP dose, 168 h): 17.25 mg/kg
Static dose (C. glabrata; 10956, single IP dose, 168 h): 6.29 mg/kg
1 log kill 24 h Ave Free drug AUC/MIC (C. glabrata; 35315): 0.42
1 log kill free drug AUC0-168 h/MIC (C. glabrata; 35315): 2.94
1 log kill total drug AUC0-168 h/MIC (C. glabrata; 35315): 367.06
Stasis 24 h Ave free drug AUC/MIC (C. glabrata; 35315): 0.07
Stasis free drug AUC0-168 h/MIC (C. glabrata; 35315): 0.50
Stasis total drug AUC0-168 h/MIC (C. glabrata; 35315): 62.50
1 log kill dose (C. glabrata; 35315, single IP dose, 168 h): 2.39 mg/kg
Static dose (C. glabrata; 35315, single IP dose, 168 h): 0.34 mg/kg
1 log kill 24 h Ave Free drug AUC/MIC (C. glabrata; Mean of 3 C. glabrata strains): 0.66
1 log kill dose (C. glabrata; Mean of 3 C. glabrata strains): 6.69 mg/kg
1 log kill free drug AUC0-168 h/MIC (C. glabrata; Mean of 3 C. glabrata strains): 4.63
1 log kill total drug AUC0-168 h/MIC (C. glabrata; Mean of 3 C. glabrata strains): 578.93
Stasis 24 h Ave free drug AUC/MIC (C. glabrata; Mean of 3 C. glabrata strains): 0.20
Stasis free drug AUC0-168 h/MIC (C. glabrata; Mean of 3 C. glabrata strains): 1.40
Stasis total drug AUC0-168 h/MIC (C. glabrata; Mean of 3 C. glabrata strains): 174.78
Static dose (C. glabrata; Mean of 3 C. glabrata strains): 2.23 mg/kg
1 log kill 24 h Ave Free drug AUC/MIC (C. glabrata; [4]): 0.42
1 log kill dose (C. glabrata; [4]): 2.39 mg/kg
1 log kill free drug AUC0-168 h/MIC (C. glabrata; [4]): 2.94
1 log kill total drug AUC0-168 h/MIC (C. glabrata; [4]): 367.06
Stasis 24 h Ave free drug AUC/MIC (C. glabrata; [4]): 0.07
Stasis free drug AUC0-168 h/MIC (C. glabrata; [4]): 0.5
Stasis total drug AUC0-168 h/MIC (C. glabrata; [4]): 62.50
Static dose (C. glabrata; [4]): 0.34 mg/kg
kill at high doses (C. glabrata; a number of strains, kidney burden, 168 h): > 2 log10
free AUC/MIC targets lower than the three comparator echinocandins (C. glabrata; in vivo): > 10 fold
MIC90 [3]: 0.06 µg/mL
